System: Homo sapiens
Experiment: Pharmacokinetic parameters for Oxcarbazepine and its active metabolite, 10-Monohydroxy Carbazepine evaluated after oral administration of Oxcarbazepine tablets.
Assay type: ADME, organism-based
Details: in vivo, dosed compound id 11, dosed compound name OXCARBAZEPINE; for Excretion: tissue Urine

Compound | Tmax (dietary status Fasting, gender male, regimen Single dose, tissue Plasma) [h] | t1/2 (dose 300 mg, regimen Single dose, tissue Plasma) [h] | Vd(app) (tissue Plasma) [L] | t1/2 (tissue Plasma) [h] | Excretion [%]
NC(=O)N1c2ccccc2CC(O)c2ccccc21 (configuration not stated) [LICARBAZEPINE] | 4.5 | 19 | 49 | 9 | 49
NC(=O)N1c2ccccc2CC(=O)c2ccccc21 [OXCARBAZEPINE] |  |  |  | 2 | 27
